The source of these data is US20150224164A1, “TREATMENT OF AUTISM SPECTRUM DISORDERS USING GLYCYL-L-2-METHYLPROLYL-L-GLUMATIC ACID” (Neuren Pharmaceuticals Limited, priority 2013, published 2015).

Structures are written as SMILES. Where a SMILES comes first, the peptide text is derived from it.

Holding throughout (format): in vivo, mouse
For assay [1], the system named is Akt. As to the kind of experiment: Western blot of phosphorylated Akt. Particulars: fmr1 KO; 100 mg/kg 4 weeks; p<0.05. As to the method:
(§1) Phosphorylated Extracellular Signal-Regulated Protein Kinase (ERK) and Protein Kinase B (Akt) expression was measured by Western blot analysis in lymphocytes from fmr1 KO and wild-type animals administered ether vehicle or G-2MePE (100 mg/kg, i.p.; 28 days) treated in the behavior experiments as previously described (Lopez Verrilli et al. 2009). ERK is a classical MAPK signal transduction protein, responsible for growth factor transduction, proliferation, cytokine response to stress and apoptosis. […]
(§2) To conduct the western blots, antibodies were used against Akt ( 1/1000) (Cell Signaling), ERK1/2 ( 1/2000) (Cell Signaling), antiphospho-Akt ( 1/1000) and antiphospho-ERK ( 1/2000) (Cell Signaling). Total Akt and ERK 1/2 protein content (phosphorylated) were evaluated by blotting membranes with antiphospho-Akt ( 1/1000) and antiphospho-ERK antibodies ( 1/2000) (Cell Signaling). Akt or ERK phosphorylation was normalized to protein content in the same sample and expressed as % of change with respect to basal conditions, considering basal levels as 100%. Protein loading was evaluated by stripping and re-blotting membranes with b-actin antibody ( 1/1000) (Sigma Chemical Co.). […]
On the technique in general: A western blot detects proteins with antibodies after separation by electrophoresis.

Assay [2] concerns ERK1/2. As to the kind of experiment: Western blot of ERK and phosphorylated ERK. Particulars: 100 mg/kg 4 weeks, 12 days after last injection. As to the method: as §1, §2
Assay [3] deals with hippocampal slices of heterozygous Shank3-deficient mice. As to the kind of experiment: Hippocampal slice electrophysiology, Shank3-deficient mice (Example 13). As to conditions: 15 or 60 mg/kg oral b.i.d. 14 days. As to the method: 1 to 3 month old wild type and heterozygous Shank3-deficient mice are divided into 4 treatment groups: placebo treated wild-type, placebo treated Shank3-deficient group and two Shank3-deficient G-2-MePE treated groups. The animals are given placebo (water) or G-2-MePE formulated in water administered orally, b.i.d for 14 days. G-2-MePE is administered at two doses: 15 or 60 mg/kg.
Post-mortem, acute hippocampal slices (350 μm) are prepared from mice using a tissue chopper. Slices are maintained and experiments are conducted at 32° C. Slices are perfused with Ringer's solution containing (in mM): NaCl, 125.0; KCl, 2.5; MgSO4, 1.3; NaH2PO4, 1.0; NaHCO3, 26.2; CaCl2, 2.5; glucose, 11.0. […] Slices are maintained for 1 hr prior to establishment of a baseline of field excitatory postsynaptic potentials (fEPSPs) recorded from stratum radiatum in area CA1, evoked by stimulation of the Schaffer collateral-commissural afferents (100 μs pulses every 30 s) with bipolar tungsten electrodes placed into area CA3. […] The EPSP initial slope (mV/ms) is determined from the average waveform of four consecutive responses. […] AMPA receptor-mediated and NMDA receptor-mediated I/O relationships are measured in the presence of ionotropic glutamate receptor antagonists: […] APV (50 μM) and 6-cyano-7-nitroquinoxaline-2,3-dione CNQX (100 μM). […]

In the case of `C[C@@]1(C(=O)N[C@@H](CCC(=O)O)C(=O)O)CCCN1C(=O)CN` [Example G-2-MePE, Glycyl-L-2-methylprolyl-L-glutamic acid] (HELM PEPTIDE1{G.[C[C@@]1(C(=O)[*:2])CCCN1[*:1]].E}$$$$V2.0), the “Akt phosphorylation compared to total Akt” value in assay [1] is recorded as “significant reduction in Akt phosphorylation”. In assay [2] (fmr1 KO vs vehicle, p<0.05), the “phosphorylated ERK1/2 (pERK)” value is given as “significantly reduced”. Moreover, the “total ERK expression levels” value in assay [2] (fmr1 KO) is recorded as “increase in ERK expression levels”. Also, in assay [3], the “AMPA receptor-mediated field potentials, slope of I/O function” value is on record as “normalizes”; the “hippocampal LTP and its maintenance” value was “increased hippocampal long-term potentiation”.
